In brackets after ≈: the same amount, converted by molar mass. Blank lines part the entries; values can stand above or below the molecule they belong to.
How the values were obtained:
[1] = physchem
Description: Equilibrium solubility, at room temperature,
at different pH values, of Glibenclamide (G), its
sodium salt (G--Na), and a physical mixture thereof with
βCD (G/βCD) in a 1:1, 1:2, 1:3.
Equilibrium solubility (eq.) and instant solubility
at various times, at room temperature, at different pH values, […]

[2] = Dissolution: glibenclamide concentration versus time at room temperature in buffer (Table 3); type: physicochemical
[3] = cited from earlier work

- solubility thermodynamic [1]: 400 to 700 µg/mL (≈ 1350 to 2370 µM)
SMILES: NS(=O)(=O)c1cc2c(cc1Cl)N=CNS2(=O)=O [Chlorothiazide]

SMILES: CN1C(C(=O)Nc2ccccn2)=C(O)c2ccccc2S1(=O)=O [P, Piroxicam]
- solubility thermodynamic ([1]; pH 1.2): 108 µg/mL (≈ 326 µM)
- solubility thermodynamic ([1]; pH 6): 76 µg/mL (≈ 229 µM)
- solubility thermodynamic ([1]; pH 7): 570 µg/mL (≈ 1720 µM)
- solubility thermodynamic ([1]; pH 7.5): 1030 µg/mL (≈ 3110 µM)

- solubility thermodynamic ([1]; pH 9.3): 7000 µg/mL (≈ 14200 µM)
SMILES: COc1ccc(Cl)cc1C(=O)NCCc1ccc(S(=O)(=O)NC(=O)NC2CCCCC2)cc1 [G--Na]

- solubility thermodynamic ([1]; pH 4): 4 µg/mL (≈ 8.1 µM)
- solubility thermodynamic ([1]; pH 7.39): 18.8 µg/mL (≈ 38.1 µM)
- solubility thermodynamic ([1]; pH 7.5): 20 µg/mL (≈ 40.5 µM)
- solubility thermodynamic ([1]; pH 8.89): 299 µg/mL (≈ 605 µM)
- solubility thermodynamic ([1]; pH 9): 600 µg/mL (≈ 1210 µM)
- solubility thermodynamic ([1]; pH 9.53): 768 µg/mL (≈ 1550 µM)
- Glibenclamide concentration by dissolution ([2]; pH 1.4, 05 min): < 0.01 mg/mL
- Glibenclamide concentration by dissolution ([2]; pH 1.4, 15 min): < 0.01 mg/mL
- Glibenclamide concentration by dissolution ([2]; pH 1.4, 30 min): < 0.01 mg/mL
- Glibenclamide concentration by dissolution ([2]; pH 1.4, 40 min): < 0.01 mg/mL
- Glibenclamide concentration by dissolution ([2]; pH 1.4, 50 min): < 0.01 mg/mL
- Glibenclamide concentration by dissolution ([2]; pH 5.0, 05 min): < 0.01 mg/mL
- Glibenclamide concentration by dissolution ([2]; pH 5.0, 10 min): < 0.01 mg/mL
- Glibenclamide concentration by dissolution ([2]; pH 5.0, 20 min): < 0.01 mg/mL
- Glibenclamide concentration by dissolution ([2]; pH 5.0, 40 min): < 0.01 mg/mL
- Glibenclamide concentration by dissolution ([2]; pH 5.0, 50 min): < 0.01 mg/mL
SMILES: COc1ccc(Cl)cc1C(=O)NCCc1ccc(S(=O)(=O)NC(=O)NC2CCCCC2)cc1 [G, Glibenclamide]
- pKa [3]: 6.8

Reference: US5773029A, “High solubility multicomponent inclusion complexes consisting of an acidic drug, a cyclodextrin and a base” (Chiesi Farmaceutici S.p.A., priority 1994, dated 1998)
